Converted amounts (≈) assume the structure as drawn. Read-outs that look alike come from different tables or passages of the source.
Key:
[1] = Microscopy scoring of spontaneously and US activated bubbles; format: physicochemical; design: key: Score 0 = no or very limited; Score 1 = medium and; Score 2 = high; details: oil as C2 microdroplet phase mixed with C1, 37° C.; for Spont. Act. (amount of spontaneously activated bubbles): bubbles >~15 μm; for US Act. (amount of US activated bubbles): insonated 5 s, nominal MI 0.8, 2.25 MHz
Method: 641 mg distearoylphosphateidylcholine (DSPC) and 73 mg 1,2-distearoyl-3-(trimethylammonio) propane chloride (DSTAP) were weighed into a 250 mL round bottom flask and 50 ml chloroform was added. The sample was heated under hot tap water until a clear solution was obtained. The chloroform was removed by evaporation to dryness on a rotary evaporator at 350 mm Hg and 40° C., followed by further drying at 50 mm Hg in desiccator over night. Thereafter, 143 mL water was added and the flask again placed on a rotary evaporator and the lipids were rehydrated by full rotational speed and 80° C. water bath temperature for 25 minutes. The samples were placed in refrigerator over night. The lipid dispersion was transferred to a suitable vial and stored in refrigerator until use.
Emulsions were prepared by transferring aliquots of 1 mL of the cold lipid dispersion to 2 mL chromatography vials. To each of seven vials was added 100 μL of the fluorocarbon oils as detailed in Table 11. The chromatography vials were shaken on a CapMix (Espe, GmbH) for 75 seconds. The vials were immediately cooled in ice, pooled and kept cold until use. Coulter counter analysis was performed to determine the volume concentration of the microdroplets and the emulsions were then diluted with water to 10 μl/mL disperse phase.
C1 (as detailed in E1-2) was reconstituted in 2 mL of water and mixed together with the C2 samples prepared in a 10 ml tube to a ratio of 10:1 and shaken carefully by hand. The mixture was then diluted with 7 mL water. The samples were evaluated for spontaneously activated and US activated bubbles by microscopy in manual version of the methodology described in E1-4. One mL of this solution was transferred to a microscope cell where the temperature was stabilised to 37° C. after 2 minutes. The cell was set up so that US sonication, using an ATL 3-2 transducer with a center frequency of 2.25 MHZ, could be applied to the sample. At 200× magnification the entire cell area was scanned and the content of large (>˜15 μm), spontaneously activated bubbles was semi quantitatively assessed by visual inspection. For each sample, a score in the range of 0 to 2 was given, where 0 designate “no or very few large phase shift bubbles observed”, 1 designate “medium number of large phase shift bubbles observed” and 2 designate “large number of large phase shift bubbles observed”. The sample was then insonated for 5 s at a nominal MI of 0.8 and the content of large, US activated bubbles were counted and scored in the same manner. The results from this study is detailed in Table 11 together with the physicochemical characteristics of the compounds investigated.

[2] = cited from earlier work; for vapour pressure (v.p.): at 20° C.; for Log wsol (water solubility): logarithm of Molar solubility
[3] = physchem; details: for solubility: organic solvent or mixture; for Miscibility in tCIMe: solvents
Method: As a starting-point for the study on drug loading, a theoretical evaluation of solubility of different solutes (drugs and chromophores for optical imaging) in pFMCP and a range of other oil components was performed. This evaluation was performed using a state-of-the-art software for assessment of solvent-solute compatibility; Hansen solubility parameters, HSPiP v.4 (Steven Abbott TCNF Ltd.). The HSPIP analysis calculates three basic properties relating to compatibility between substances; Polarity, Dispersion and Hydrogen binding and a distance in this three dimensional space between e.g. a solvent and a solute; the Hansen distance (Hd). The closer the solvent and solute are in this space, the (relatively) better the solubility of the solute in the solvent. […] The miscibility between the solvent and the solubility of the solutes in one of the solvents were experimentally determined.
In addition, a 1:1:2 mixture of said three solvents loaded with Ptx was explored. […] C2 with a 1:1:1 mixture of these components was manufactured as detailed below.

Compound	Spont. Act. (amount of spontaneously activated bubbles) [1]	US Act. (amount of US activated bubbles) [1]	vapour pressure (v.p.) [2]	Log wsol (water solubility) [2]	further results
FC(C(F)C(F)(F)C(F)(F)F)C(F)(F)F (stereo not shown) [2H,3H-perfluoropentane]	1	0	431.8 torr	−3.2	–
dichlorodifluoroethane [dCldFEt]	–	–	–	–	miscibility in pFMCP, dClMe and tClMe [3]: completely miscible
Methyl-1,1,2,2-tetrafluoroethyl ether	2	0	842.4 torr	−1.4	–
CCCCCCCCCCCCCCCCCCN1C(=CC=CC=CC=CC2=[N+](CCCCCCCCCCCCCCCCCC)c3ccccc3C2(C)C)C(C)(C)c2ccccc21.[I-] [DiR]	–	–	–	–	solubility in solvent mixture ([3]; 1:1:1 mixture of pFMCP, ClrFPr and pFMCP): > 10 mg/mL; Solubility in tCIMe ([3]; target molecules): ~50 mg/mL
CCS(=O)(=O)Nc1ccc2c(c1)/C(=C(/Nc1ccc(CN3CCCCC3)cc1)c1ccccc1)C(=O)N2 [Hesperadin]	–	–	–	–	solubility ([3]; Solubility in tCIMe): ~7.5 mg/mL (≈ 14.5 mM)
FC(F)(F)C(F)(F)C(F)(F)C(F)(F)C(F)(F)C(F)(F)F [Perfluorohexane]	0	1	359.2 torr	−6.7	–
CC(=O)O[C@H]1C(=O)[C@@]2(C)[C@H]([C@H](OC(=O)c3ccccc3)[C@]3(O)C[C@H](OC(=O)[C@H](O)[C@@H](NC(=O)c4ccccc4)c4ccccc4)C(C)=C1C3(C)C)[C@]1(OC(C)=O)CO[C@@H]1C[C@@H]2O [Paclitaxel]	–	–	–	–	solubility in solvent mixture [3]: > 50 mg/mL; solubility ([3]; Solubility in tCIMe): ~350 mg/mL (≈ 410 mM); solubility ([3]; solubility in solvent mixture): > 25 mg/mL
CN(C)C/C=C/C(=O)Nc1cc2c(Nc3ccc(F)c(Cl)c3)ncnc2cc1O[C@H]1CCOC1 [Afatinib]	–	–	–	–	solubility ([3]; Solubility in tCIMe): ~100 mg/mL (≈ 206 mM)
FC(F)(F)C(F)(F)C(F)(F)C(F)(F)C(F)(F)C(F)(F)C(F)(F)F [Perfluoroheptane]	0	2	–	–	–
COc1cccc2c1C(=O)c1c(O)c3c(c(O)c1C2=O)C[C@@](O)(C(=O)CO)C[C@@H]3O[C@H]1C[C@H](N)[C@H](O)[C@H](C)O1 [Doxorubicin]	–	–	–	–	solubility ([3]; trichloromethane (tClMe), Solubility in tCIMe, target molecules): ~1 mg/mL (≈ 1.84 mM)
1,1,2,3,3,3-Hexafluoropropyl methyl	2	0	418.8 torr	−2.5	–
CCN(CC)c1ccc2nc3c4ccccc4c(=O)cc-3oc2c1 [Nile Red]	–	–	–	–	solubility ([3]; Solubility in tCIMe): ~50 mg/mL (≈ 157 mM); solubility ([3]; solubility in solvent mixture): > 5 mg/mL
Perfluorodimethylcyclobutane	0	1	579 torr	−5.7	–
FC(F)C(F)(F)C(F)(F)C(F)(F)C(F)(F)C(F)(F)F [1H-perfluorohexane]	1	1	238.6 torr	−5.3	–
CC(=O)O[C@@]12CO[C@@H]1C[C@H](O)[C@@]1(C)C(=O)[C@H](O)C3=C(C)[C@@H](OC(=O)[C@H](O)[C@@H](NC(=O)OC(C)(C)C)c4ccccc4)C[C@@](O)([C@@H](OC(=O)c4ccccc4)[C@H]21)C3(C)C [Docetaxel]	–	–	–	–	solubility ([3]; Solubility in tCIMe): ~20 mg/mL (≈ 24.8 mM)
C=CC(F)(F)C(F)(F)C(F)(F)C(F)(F)F [1H, 1H,2H-perfluoro-1-hexene]	1	1	353.1 torr	−4.6	–
chlorotrifluoropropane [CltFPr]	–	–	–	–	miscibility in pFMCP, dClMe and tClMe [3]: completely miscible; Miscibility in tCIMe [3]: 100%; Log wsol (water solubility) ([2]; solvents): −2.4
ClCCl [dCIMe, dichloromethane]	–	–	–	–	miscibility in pFMCP [3]: ~10%; Miscibility in tCIMe [3]: 100%; Log wsol (water solubility) ([2]; solvents): −0.8
FC(F)(F)C1(F)C(F)(F)C(F)(F)C(F)(F)C1(F)F [pFMCP, perfluoromethyl-cyclopentane]	0	1	–	–	Miscibility in tCIMe [3]: ~10%
2,2,3,3,3-Pentafluoropropyl methyl	1	0	559.6 torr	−2.0	–

Source: US12343396B2, “Ultrasound mediated delivery of drugs” (EXACT THERAPEUTICS AS, priority 2013, dated 2025)
